# Reference: publication PMC9518244, “TiO2 nanotube immobilised 5-lipoxygenase-mediated screening and isolation of anti-inflammatory active compounds from the leaves of lonicera japonica thunb” (Journal of Enzyme Inhibition and Medicinal Chemistry, 2022)
# Read-outs that look alike come from different tables or passages of the source.
# Experiments:
# RAW264.7 cells [1] = assay: Cytotoxicity assay (CCK-8) in RAW264.7 cells; assay type: cell-based, mouse; conditions: for Toxicity on RAW264.7 cells (in words): 20-60 μM, luteolin 1-5 μM
# Experimental: (§1) For cytotoxicity assay, RAW264.7 cells were seeded in 96-well plates at an inoculation amount of 3 × 10^4/well, and the medium was changed after culturing for 24 h at 37 °C and 5% […]
# (§2) concentration (20 μM, 40 μM and 60 μM) of sample solution prepared with fresh medium was added dropwise to 96-well plate. After incubation for 2 h, LPS with a final concentration of 100 ng/mL was added to each well of the experimental group and the model group , the same volume of PBS was added to the normal group and the negative control group. After stimulation for another 22 h, the medium was removed and replaced with fresh medium. 10 μL of CCK-8 reagent was added at room temperature in the dark, and the absorbance was measured at a wavelength of 450 nm after 1 h. […]
# RAW264.7 cells [2] = assay: Cell morphology observation of RAW264.7 cells; assay type: cell-based, mouse; conditions: 60 μM, with and without LPS 100 ng/mL, microscope 200x
# Experimental: The RAW264.7 mouse macrophage cell line (RAW264.7) was cultured in DMEM (Dulbecco's modified eagle medium) supplemented with 10% (v/v) Fetal bovine serum (FBS), 1×105 U·L-1 penicillin and 100 mg·L-1 streptomycin under an atmosphere of humidified 5% CO2 at 37 °C to the logarithmic phase. The samples were dissolved in DMSO and diluted with medium to the desired concentration. The content of DMSO should not exceed 1‰.
# There are blank group (no test sample, no LPS), model group (100 ng/mL LPS), experimental group (60 μM test sample + LPS) and negative control group (60 μM test sample) were tested.
# For cell morphology observation , the cells were seeded into 6 -well plates at an inoculation amount of 6 ×10^5/well, cultured at 37 °C and 5% CO2 for 24 h, and then the medium was changed. After 2 h incubation with different groups, LPS stimulation with a final concentration of 100 ng/mL were added into the model group and experimental group .
# normal group and the negative control group were added with the same volume of PBS, and then photographed under a microscope (200x) after 22 h.
# 5-LOX [3] = molecular target: T1, 5-LOX (Glycine max, UniProt P08170); assay: Offline enzyme model: 5-LOX inhibition, linoleic acid / FOX reagent, A590; assay type: biochemical; conditions: concentration 1.0 mmol/L
# Text: Specific steps were as follows:
# Information Classification: General
# (1 picture or pasted object on this page, not shown here)
# 5-LOX [4] = molecular target: T1, 5-LOX; assay: 5-LOX immobilised on TiO2 nanotubes microreactor screening (HPLC peak area ratio); assay type: binding; conditions: analytes of LLJT extract eluted from immobilised 5-LOX, HPLC-MS
# Experimental: Glutaraldehyde (GA) was used as crosslinking agent to covalently immobilise 5-LOX on the amino terminated TNTs. The NH2-TNTs was added to GA solution and shaken in a incubator at room temperature (25 °C) for 8 h. The resulting product was labelled GA-TNTs. Then GA-TNTs was merged with Tris-HCl solution (0.1 M, pH 7.0) containing a certain amount of 5-LOX, and the immobilisation was performed in a shaker at 4 °C for a certain time. After that, the immobilised 5-LOX was acquired by centrifuge to remove supernatant and comprehensively rinsed with Tris-HCl buffer solution several times to remove the unimmobilised enzyme. The 5-LOX-TNTs composites were suspended in Tris-HCl solution and stored at 4 °C before use.
# The crude extract of leaves of Lonicera japonica Thunb. was added to 5% (v/v) methanol-Tris buffer solution, and dissolved by ultrasonic to prepare an incubation solution with a concentration of about 5.66 mg/mL. Then 25 mg of material immobilised with 5-LOX was combined with 1 mL of incubation solution and incubated at 25 °C for 90 min on a shaker. After incubation, the material was washed with 1 mL of buffer solution for six times. Then 1 mL of 90% (v/v) acetonitrile aqueous solution was used for ultrasonic elution for 10 min. After centrifugation, the supernatant was filtered and analysed by HPLC-MS.
# The screening processes were the same as above.
# RAW264.7 cells [5] = assay: NO production in LPS-stimulated RAW264.7 cells (NO kit); assay type: cell-based, mouse; conditions: for LPS-induced NO release in RAW264.7 cells (in words): compared with the model group
# Experimental: For the effects of the test samples on NO production research, RAW264.7 cells were seeded in 96-well plates at 3×10^4 cells/well, cultured at 37°C, 5% CO 2, and the medium was changed after 24 h. There were the blank group, model group, experimental group (20 μM, 40 μM, 60 μM test sample+LPS) and negative control group (60 μM test sample). After dosing, the cells were incubated at 37 °C with 5% CO 2 for 2 h, then LPS was added to the model group and the experimental group to make the final concentration reach 100 ng/mL, the normal group and the negative control group were added with the same volume of PBS, Then 50 μL of supernatant was taken after culturing for 20 h to record the absorbance value at 540 nm using Information Classification: General
# [6] = Cytotoxicity assay (CCK-8) in RAW264.7 cells; assay type: cell-based, mouse; conditions: mouse, RAW264.7 cells, read-out: Cell viability (%)
# Experimental: as §1, §2
# rat foot swelling = assay: Rat foot swelling model (egg white); assay type: in vivo; conditions: 5.0 mg/kg intraperitoneal, 10-60 min after egg white
# Experimental: the NO kit, and the amount of NO produced in each well was calculated. Each group of experiment was performed in parallel three times.
# All the animals were acclimated under standard laboratory conditions and had free access to standard water and food. All procedures were conducted in accordance with the “Guiding Principles in the Care and Use of Animals” (China) and were approved by the Ethics Committee of Biomedical Scientific Research of Henan University.
# Thirty two male and female rats were divided into four groups with eight rats in each group.
# They were normal saline negative control group, dexamethasone positive control group, n-butanol phase of Lonicera japonica Thunb. leaves (RDY nB) administration group and the […]
# The intraperitoneal injection method was used
# One hour after injection the corresponding drugs in each group, 0.1 mL of fresh egg white was injected into the right postal paw of each rat. Before and after the injection of egg white at 10, 20, 30, 40, 50, and 60 min, the volume of the right postal paw of rat was measured by a toe volume meter, and the swelling rate was calculated. […]
# Statistical analysis was analyzed by one-way ANOVA through SPSS 17.0 software, and all data expressed as mean ± SD. Meanwhile, the significant difference between groups was evaluated by Tukey post-hoc test, P<0.05 and P<0.01 were considered statistically Information Classification: General […]
# 5-LOX [7] = system: 5-LOX; set-up: method as in earlier work; conditions: RBL-1 cells; cited from earlier work
# [8] = Cytotoxicity assay (CCK-8) in RAW264.7 cells; assay type: cell-based; conditions: mouse, no LPS, read-out: Cell viability (%)
# [9] = 40 μmol/L, LPS 100 ng/mL, vs model group
# [10] = 60 μmol/L, LPS 100 ng/mL, vs model group
# T1 sequence (P08170 whole entry): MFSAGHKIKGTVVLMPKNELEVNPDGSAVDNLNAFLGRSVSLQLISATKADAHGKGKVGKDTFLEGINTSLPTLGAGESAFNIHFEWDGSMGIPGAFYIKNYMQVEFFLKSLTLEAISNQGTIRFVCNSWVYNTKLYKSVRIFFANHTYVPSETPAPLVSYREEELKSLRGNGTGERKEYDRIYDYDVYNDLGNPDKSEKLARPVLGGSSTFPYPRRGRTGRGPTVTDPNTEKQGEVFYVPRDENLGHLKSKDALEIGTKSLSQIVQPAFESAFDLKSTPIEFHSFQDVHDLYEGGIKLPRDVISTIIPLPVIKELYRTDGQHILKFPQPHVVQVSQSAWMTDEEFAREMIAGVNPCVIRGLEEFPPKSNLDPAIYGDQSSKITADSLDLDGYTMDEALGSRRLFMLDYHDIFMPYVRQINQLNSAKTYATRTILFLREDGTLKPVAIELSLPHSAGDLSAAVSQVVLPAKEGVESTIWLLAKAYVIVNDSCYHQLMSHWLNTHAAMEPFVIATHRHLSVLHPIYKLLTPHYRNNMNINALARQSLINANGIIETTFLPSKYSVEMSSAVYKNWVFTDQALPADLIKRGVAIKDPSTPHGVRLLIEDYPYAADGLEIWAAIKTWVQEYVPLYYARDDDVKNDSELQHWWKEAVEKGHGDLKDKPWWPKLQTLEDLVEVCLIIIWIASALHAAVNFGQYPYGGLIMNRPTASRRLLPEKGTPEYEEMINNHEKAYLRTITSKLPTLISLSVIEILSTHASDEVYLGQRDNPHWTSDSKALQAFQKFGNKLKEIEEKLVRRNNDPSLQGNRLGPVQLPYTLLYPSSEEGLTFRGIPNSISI
SMILES,"Cell viability (%) (RAW264.7 cells [1]; 20 μmol/L, LPS 100 ng/mL)","Cell viability (%) (RAW264.7 cells [1]; 20 μmol/L, no LPS)","Cell viability (%) (RAW264.7 cells [1]; 40 μmol/L, LPS 100 ng/mL)","Cell viability (%) (RAW264.7 cells [1]; 40 μmol/L, no LPS)","Cell viability (%) (RAW264.7 cells [1]; 60 μmol/L, LPS 100 ng/mL)","Cell viability (%) (RAW264.7 cells [1]; 60 μmol/L, no LPS)",Toxicity on RAW264.7 cells (in words) (RAW264.7 cells [1]),Effect on morphology of RAW264.7 cells (RAW264.7 cells [2]),Inhibitory rate (%) (5-LOX [3]),Bonding rate (%) (5-LOX [4]),"NO content (RAW264.7 cells [5]; 20 μmol/L, LPS 100 ng/mL) [µmol/L]","NO content (RAW264.7 cells [5]; 20 μmol/L, no LPS) [µmol/L]","NO content (RAW264.7 cells [5]; 40 μmol/L, LPS 100 ng/mL) [µmol/L]",Inhibition rate (%) of NO production (RAW264.7 cells [5]; [9]) [%],"NO content (RAW264.7 cells [5]; 60 μmol/L, LPS 100 ng/mL) [µmol/L]",Inhibition rate (%) of NO production (RAW264.7 cells [5]; [10]) [%],LPS-induced NO release in RAW264.7 cells (in words) (RAW264.7 cells [5]; LPS 100 ng/mL),"viability at 24 h, 20 μmol/L ([6]; LPS 100 ng/mL) [%]","viability at 24 h, 20 μmol/L ([6]; no LPS) [%]","viability at 24 h, 40 μmol/L ([6]; LPS 100 ng/mL) [%]",further results
"O=C(/C=C/c1ccc(O)c(O)c1)O[C@H]1[C@H](O)C[C@](O)(C(=O)O)C[C@H]1OC(=O)/C=C/c1ccc(O)c(O)c1 [Isochlorogenic acid C, isochlorogenic acid C]",206.6±7.8,140.0±7.6,188.8±1.4,190.4±0.2,201.4±3.8,186.6±4.1,low toxicity on RAW264.7 cells,improve the deformation of the inflammatory cells,40.24,6.34,6.6 ± 0.3,5.9 ± 0.4,6.7 ± 0.6,25.6,7.2 ± 0.6,19.9,can inhibit LPS-induced NO release in RAW264.7 cells,–,–,–,–
"C[C@@H]1O[C@@H](O[C@H]2[C@H](Oc3cc(O)c4c(=O)cc(-c5ccc(O)c(O)c5)oc4c3)O[C@H](CO)[C@@H](O)[C@@H]2O)[C@H](O)[C@H](O)[C@H]1O [Lonicerin, lonicerin]",–,–,–,–,–,–,low toxicity on RAW264.7 cells,improve the deformation of the inflammatory cells,–,23.42,6.9 ± 0.3,6.1 ± 0.1,7.4 ± 0.2,–,7.9 ± 2.4,–,could also inhibit LPS-induced NO release,216 ± 4.2,196.2 ± 1.8,204 ± 3.5,"viability at 24 h, 40 μmol/L ([6]; no LPS): 180 ± 9.1%; viability at 24 h, 60 μmol/L ([6]; LPS 100 ng/mL): 226 ± 7.8%; viability at 24 h, 60 μmol/L ([6]; no LPS): 179.4 ± 0.8%; inhibition at 20 µM (RAW264.7 cells [5]; Mus musculus, RAW264.7, 20 μmol/L, LPS 100 ng/mL, vs model group, read-out: Inhibition rate (%) of NO production): 23.7%; inhibition at 40 µM (RAW264.7 cells [5]; Mus musculus, RAW264.7, 40 μmol/L, LPS 100 ng/mL, vs model group, read-out: Inhibition rate (%) of NO production): 18.5%; inhibition at 60 µM (RAW264.7 cells [5]; Mus musculus, RAW264.7, 60 μmol/L, LPS 100 ng/mL, vs model group, read-out: Inhibition rate (%) of NO production): 12.4%"
C[C@@H]1C[C@H]2[C@@H]3CCC4=CC(=O)C=C[C@]4(C)[C@@]3(F)[C@@H](O)C[C@]2(C)[C@@]1(O)C(=O)CO [Dexamethasone],–,–,–,–,–,–,–,–,–,–,–,–,–,–,–,–,–,–,–,–,"Anti-inflammatory effect, foot swelling rate (rat foot swelling): showed a good anti-inflammatory effect"
"O=c1cc(-c2ccc(O)c(O)c2)oc2cc(O[C@@H]3O[C@H](CO)[C@@H](O)[C@H](O)[C@H]3O)cc(O)c12 [Luteoloside, luteoloside]",102.6±0.4,100.2±2.1,104.2±3.4,102.1±1.7,103.2±4.8,56.8±8.8,–,no significant effect on cells,27.26,8.87,11.5 ± 0.1,15.8 ± 1.5,11.9 ± 0.5,-24.9,13.6 ± 1.3,-43.0,failed to inhibit,–,–,–,"Inhibition rate (%) of NO production (RAW264.7 cells [5]; 20 μmol/L, LPS 100 ng/mL, vs model group): -20.2%"
"O=c1cc(-c2ccc(O)c(O)c2)oc2cc(O)cc(O)c12 [Luteolin, luteolin]",–,–,–,–,–,–,–,cause a large number of cell death,–,34.85,–,–,–,–,–,–,failed to inhibit,52.6 ± 3.1,49.5 ± 3.9,33.4 ± 12.9,"viability at 24 h, 1 μmol/L ([6]; LPS 100 ng/mL): 195 ± 2.6%; viability at 24 h, 1 μmol/L ([6]; no LPS): 120 ± 7.2%; viability at 24 h, 2 μmol/L ([6]; 2 μmol/L, LPS 100 ng/mL): 199 ± 8.6%; viability at 24 h, 5 μmol/L ([6]; 5 μmol/L, LPS 100 ng/mL): 170 ± 3.5%; viability at 24 h, 40 μmol/L ([6]; no LPS): 22 ± 2.4%; viability at 24 h, 60 μmol/L ([6]; LPS 100 ng/mL): 1.4 ± 0.6%; viability at 24 h, 60 μmol/L ([6]; no LPS): 1.5 ± 0.4%; IC50 (5-LOX [7]): 810 nM; viability at 24 h, 2 μmol/L [8]: 104 ± 8.5%; NO content (RAW264.7 cells [5]; 1 μmol/L, LPS 100 ng/mL): 14.4 ± 0.4 µmol/L; NO content (RAW264.7 cells [5]; 1 μmol/L, no LPS): 11.6 ± 0.6 µmol/L; NO content (RAW264.7 cells [5]; 2 μmol/L, LPS 100 ng/mL): 12.1 ± 0.1 µmol/L; NO content (RAW264.7 cells [5]; 5 μmol/L, LPS 100 ng/mL): 9.4 ± 0.5 µmol/L; inhibition at 1 µM (RAW264.7 cells [5]; Mus musculus, RAW264.7, 1 μmol/L, LPS 100 ng/mL, vs model group, read-out: Inhibition rate (%) of NO production): -51.1%; inhibition at 2 µM (RAW264.7 cells [5]; Mus musculus, RAW264.7, 2 μmol/L, LPS 100 ng/mL, vs model group, read-out: Inhibition rate (%) of NO production): -26.4%; inhibition at 5 µM (RAW264.7 cells [5]; Mus musculus, RAW264.7, 5 μmol/L, LPS 100 ng/mL, vs model group, read-out: Inhibition rate (%) of NO production): 1.8%"
